A value given as a limit tells only on which side of the number the result lay.

The first assay relates to DLD-1 BRCA2−/− cells. Description: Homologous recombination synthetic lethal inhibition of proliferation, DLD-1 BRCA2-/- (Cell Titre Glo 3D). The class given is cell-based. Conditions: Homo sapiens, DLD-1, DLD-1 BRCA2-/- proliferation; column head only partly shown; read-out: POLQ PD Prolif Lumin (converted). From the text:
This assay identifies anti-proliferative effects of POLQ compounds in the homologous recombination deficient colorectal cell line DLD-1 BRCA2−/− over 8-9 population doublings (7 days for DLD-1 and 12 days for DLD-1 BRCA2−/−). DLD1 BRCA2 wt are used as a control to detect cell toxic effects not specific to homologous recombination deficiency.
DLD-1 BRCA2−/− and DLD-1 cells were kept in continuous culture in Assay Medium (RPMI 1640 phenol red free (Sigma R7509) containing 1% GlutaMAX (Gibco 35050) and 10% Foetal Bovine Serum (Gibco 10270-106)). On the day of the assay cells in culture of ˜80-90% confluent were used. Cell monolayers were washed with 10 mL PBS, then removed and added 2 mL TrypLE Express (Gibco 12604). The cells with TrypLE Express were incubated for 5 minutes in cell culture incubator and then the detached cells resuspend in 15 mL Assay Medium. Cells were counted using a ViCell and the cell images were monitored for clumps of cells, ideally they should be single or <3 cell clusters. The cells were diluted to 3,000 cells/mL of DLD-1 BRCA2−/− and 1,500 cells/mL of DLD-1 in Assay Medium and 100 μL added per well of transparent bottomed, black, tissue culture-treated 96-well plates (CoStar, No. 3904) Assay Ready Plates. The Assay Ready Plates contain a 10 point 10 μM to 0.51 nM dose range with three-fold dilutions in DMSO with a final volume of 100 nL. The plates were incubated at 37° C. with 5% C02 for 6 days. On day 6, 100 μL/well of Assay Medium was added to duplicate Assay Ready Plates. 90 μL of culture medium was removed from the cell plates and replenished with the Assay Media and compounds from the duplicate Assay Ready Plates using the Bravo. The plates were further incubated at 37° C. with 5% CO2. On day 7 the plates containing DLD-1 and Cell Titre Glo 3D (Promega G9683) were equilibrated to room temperature, then 60 μL of Cell Titre Glo 3D was added per well and incubated on a shaking platform for 30 min. Plates were read on the Envision measuring luminescence for 1 second per well. On day 12 the plates containing DLD-1 BRCA2−/− cells and Cell Titre Glo 3D (Promega G9683) were equilibrated to room temperature, then 60 μL Cell Titre Glo 3D added per well and incubated on a shaking platform for 30 min. Plates were read on the Envision measuring luminescence for 1 second per well. The data was exported into a suitable software package (such as Genedata) to perform curve fitting analysis. Inhibition of cell proliferation was expressed as an IC5o value and was determined by calculation of the concentration of compound that was required to give a 50% reduction of the average maximum Total Intensity signal.
Consider `CCC(C)c1ccc(-c2nc3c(OC4(C)CC4)ncnc3n2Cc2cc(C)ccn2)c(Cl)c1` (racemic) [Example T232, 8-(4-(sec-butyl)-2-chlorophenyl)-6-(1-methylcyclopropoxy)-9-((4-methylpyridin-2-yl)methyl)-9H-purine], for which the IC50 was over 1580 nM. Turning to `CC(CCOc1ccc(-c2nc3c(OC4(C)CC4)ncnc3n2Cc2cccc(Cl)c2F)c(Cl)c1)C(=O)O` (racemic) [Example T267, 4-(3-chloro-4-(9-(3-chloro-2-fluorobenzyl)-6-(1-methylcyclopropoxy)-9H-purin-8-yl)phenoxy)-2-methylbutanoic acid], the IC50 was 398 nM. Regarding `CC(CCOc1ccc(-c2nc3c(OC4(C)CC4)ncnc3n2Cc2ccc(F)c(Cl)c2)c(Cl)c1)C(=O)O` (racemic) [Example T269, 4-(3-chloro-4-(9-(3-chloro-4-fluorobenzyl)-6-(1-methylcyclopropoxy)-9H-purin-8-yl)phenoxy)-2-methylbutanoic acid], the IC50 was 1260 nM. With `CC(CCc1ccc(-c2nc3c(OC4(C)CC4)ncnc3n2Cc2cccc(Cl)c2)c(Cl)c1)C(=O)O` (racemic) [Example T290, 4-(3-chloro-4-(9-(3-chlorobenzyl)-6-(1-methylcyclopropoxy)-9H-purin-8-yl)phenyl)-2-methylbutanoic acid], the IC50 is 251 nM.

Regarding `CC(CCOc1ccc(-c2nc3c(OC4(C)CC4)ncnc3n2Cc2cccc(Cl)c2)c(Cl)c1)C(=O)O` (racemic) [Example T291, 4-(3-chloro-4-(9-(3-chlorobenzyl)-6-(1-methylcyclopropoxy)-9H-purin-8-yl)phenoxy)-2-methylbutanoic acid], the IC50 was 158 nM.

The assay is the same for the next values; noted with them: Homo sapiens, DLD-1, DLD-1 BRCA2 −/−, mean; read-out: POLQ PD Prolif Lumin BRCA2 −/− mean pIC50 (converted).
Consider `COc1c(Cl)cccc1Cn1c(-c2ccc(OCCC(C)C(=O)O)cc2Cl)nc2c(OC3(C)CC3)ncnc21` (racemic) [Example U3, 4-(3-chloro-4-(9-(3-chloro-2-methoxybenzyl)-6-(1-methylcyclopropoxy)-9H-purin-8-yl)phenoxy)-2-methylbutanoic acid], for which the IC50 is 3980 nM.

With `COc1ccccc1Cn1c(-c2ccc(OCCC(C)C(=O)O)cc2Cl)nc2c(OC3(C)CC3)ncnc21` (racemic) [Example U4, 4-(3-chloro-4-(9-(2-methoxybenzyl)-6-(1-methylcyclopropoxy)-9H-purin-8-yl)phenoxy)-2-methylbutanoic acid], the IC50 was 251 nM. With `CC(CCOc1ccc(-c2nc3c(OC4(C)CC4)ncnc3n2Cc2ccccc2F)c(Cl)c1)C(=O)O` (racemic) [Example U5, 4-(3-chloro-4-(9-(2-fluorobenzyl)-6-(1-methylcyclopropoxy)-9H-purin-8-yl)phenoxy)-2-methylbutanoic acid], the IC50 was 316 nM. `CC(CCOc1ccc(-c2nc3c(OC4(C)CC4)ncnc3n2Cc2cccc(F)c2)c(Cl)c1)C(=O)O` (racemic) [Example U6, 4-(3-chloro-4-(9-(3-fluorobenzyl)-6-(1-methylcyclopropoxy)-9H-purin-8-yl)phenoxy)-2-methylbutanoic acid]: the IC50 is 251 nM.

For the compound `CC(CCOc1ccc(-c2nc3c(OC4(C)CC4)ncnc3n2Cc2ccc(C#N)cc2)c(Cl)c1)C(=O)O` (racemic) [Example U7, 4-(3-chloro-4-(9-(4-cyanobenzyl)-6-(1-methylcyclopropoxy)-9H-purin-8-yl)phenoxy)-2-methylbutanoic acid], the IC50 is 2510 nM. Consider `CC(CCCc1ccc(-c2nc3c(OC4(C)CC4)ncnc3n2Cc2ccccc2C#N)c(Cl)c1)C(=O)O` (racemic) [Example U12, 5-(3-chloro-4-(9-(2-cyanobenzyl)-6-(1-methylcyclopropoxy)-9H-purin-8-yl)phenyl)-2-methylpentanoic acid], for which the IC50 is 398 nM. On to `CC(CCOc1ccc(-c2nc3c(OC4(C)CC4)ncnc3n2Cc2cc(C#N)ccc2F)c(Cl)c1)C(=O)O` (racemic) [Example U18, 4-(3-chloro-4-(9-(5-cyano-2-fluorobenzyl)-6-(1-methylcyclopropoxy)-9H-purin-8-yl)phenoxy)-2-methylbutanoic acid], for which the IC50 was 398 nM.

Staying with this assay, now noted: Homo sapiens, DLD-1, first proliferation column (c5), taken as DLD-1 BRCA2-/-; read-out: POLQ PD Prolif Lumin (converted).
`Cc1ccnc(Cn2c(-c3ccc(N4CCC(O)CC4=O)cc3Cl)nc3c(OC4(C)CC4)ncnc32)c1` (racemic) [Example T321, 1-(3-chloro-4-(6-(1-methylcyclopropoxy)-9-((4-methylpyridin-2-yl)methyl)-9H-purin-8-yl)phenyl)-4-hydroxypiperidin-2-one]: the IC50 was 3980 nM.

Staying with this assay, now noted: Homo sapiens, DLD-1, first proliferation column (c5); DLD-1 BRCA2-/-; read-out: POLQ PD Prolif Lumin (converted).
Turning to `Cc1ccnc(Cn2c(-c3ccc(C4CCNC4=O)cc3Cl)nc3c(OC4(C)CC4)ncnc32)c1` (racemic) [Example T176, 3-(3-chloro-4-(6-(1-methylcyclopropoxy)-9-((4-methylpyridin-2-yl)methyl)-9H-purin-8-yl)phenyl)pyrrolidin-2-one], the IC50 was 794 nM. For the compound `Cc1ccnc(Cn2c(-c3ccc(OC4CCNC4=O)cc3Cl)nc3c(OC4(C)CC4)ncnc32)c1` (racemic) [Example T178, 3-(3-chloro-4-(6-(1-methylcyclopropoxy)-9-((4-methylpyridin-2-yl)methyl)-9H-purin-8-yl)phenoxy)pyrrolidin-2-one], the IC50 was 501 nM. As to `Cc1ccnc(Cn2c(-c3ccc(N4CC5CC4CCN5)cc3Cl)nc3c(OC4(C)CC4)ncnc32)c1` (racemic) [Example T491, 8-(4-(2,6-diazabicyclo[3.2.1]octan-6-yl)-2-chlorophenyl)-6-(1-methylcyclopropoxy)-9-((4-methylpyridin-2-yl)methyl)-9H-purine], the IC50 was 501 nM. In the case of `Cc1ccnc(Cn2c(-c3ccc(N4CCN5CCC4C5)cc3Cl)nc3c(OC4(C)CC4)ncnc32)c1` (racemic) [Example T493, 8-(4-(1,4-diazabicyclo[3.2.1]octan-4-yl)-2-chlorophenyl)-6-(1-methylcyclopropoxy)-9-((4-methylpyridin-2-yl)methyl)-9H-purine], the IC50 was 251 nM. Consider `Cc1ccc(C)c(Cn2c(-c3ccc(OCCC(C)C(=O)O)cc3Cl)nc3c(OC4(C)CC4)ncnc32)c1` (racemic) [Example T569, 4-(3-chloro-4-(9-(2,5-dimethylbenzyl)-6-(1-methylcyclopropoxy)-9H-purin-8-yl)phenoxy)-2-methylbutanoic acid], for which the IC50 is 631 nM. As to `Cc1cccc(Cn2c(-c3ccc(OCCC(C)C(=O)O)cc3Cl)nc3c(OC4(C)CC4)ncnc32)c1C` (racemic) [Example T570, 4-(3-chloro-4-(9-(2,3-dimethylbenzyl)-6-(1-methylcyclopropoxy)-9H-purin-8-yl)phenoxy)-2-methylbutanoic acid], the IC50 was 398 nM.

The same assay, now with this note: Homo sapiens, DLD-1, first proliferation column; DLD-1 BRCA2-/-; read-out: POLQ PD Prolif Lumin (converted).
Turning to `CC(CCOc1ccc(-c2nc3c(OC4(C)CC4)ncnc3n2Cc2cccc(C3CC3)c2)c(Cl)c1)C(=O)O` (racemic) [Example T601, 4-(3-chloro-4-(9-(3-cyclopropylbenzyl)-6-(1-methylcyclopropoxy)-9H-purin-8-yl)phenoxy)-2-methylbutanoic acid], the IC50 is 794 nM.

Staying with this assay, now noted: Homo sapiens, DLD-1, proliferation, luminescence, taken as DLD-1 BRCA2-/-; read-out: POLQ PD Prolif Lumin (converted).
As for `CC(CCCc1ccc(-c2nc3c(OC4(C)CC4)ncnc3n2Cc2cccc(Cl)c2)c(Cl)c1)C(=O)O` (racemic) [Example T434, 5-(3-chloro-4-(9-(3-chlorobenzyl)-6-(1-methylcyclopropoxy)-9H-purin-8-yl)phenyl)-2-methylpentanoic acid], the IC50 is 158 nM. In the case of `CCC(CCOc1ccc(-c2nc3c(OC4(C)CC4)ncnc3n2Cc2cccc(Cl)c2)c(Cl)c1)C(=O)O` (racemic) [Example T441, 4-(3-chloro-4-(9-(3-chlorobenzyl)-6-(1-methylcyclopropoxy)-9H-purin-8-yl)phenoxy)-2-ethylbutanoic acid], the IC50 is 158 nM. On to `COc1cccc(Cn2c(-c3ccc(OCCC(C)C(=O)O)cc3Cl)nc3c(OC4(C)CC4)ncnc32)c1` (racemic) [Example T454, 4-(3-chloro-4-(9-(3-methoxybenzyl)-6-(1-methylcyclopropoxy)-9H-purin-8-yl)phenoxy)-2-methylbutanoic acid], for which the IC50 was 794 nM.
